Assays:
[1] = parameters: method as in PMID 32628359; settings: healthy volunteers, cited from earlier work
[2] = target: T1, ABCB1 (MDR1) human ABC transporter (Homo sapiens, UniProt P08183); experiment: ABCB1 (MDR1) vesicular uptake inhibition in inside-out membrane vesicles; assay type: biochemical; settings: vesicular uptake of probe substrate, SCO-101 1.2-300 µM, with and without ATP; read-out: IC50, inhibition of MDR1/ABCB1 efflux transporter
T1 construct: purchased SOLVO Biotechnology
Description: Analysis of SCO-101 ABCB1 (MDR1) efflux transporter inhibition was evaluated by measuring the vesicular uptake of a probe substrate into inside-out membrane vesicles expressing ABCB1 (MDR1) human ABC transporter in the absence and presence of SCO-101 (1.2 –300 μM) with and without ATP. Transporter inhibition was observed as reduced level of vesicular uptake of the probe substrate in the presence of ATP. ABCB1 (MDR1) assay was conducted with reagents from PredivezTM VT Reagent Kit for MDR1/P-gp (SOLVO Biotechnology). Assays were conducted as per the manufacturer’s recommendation. The inhibition was evaluated by measuring the vesicular uptake of a probe substrate into inside-out membrane vesicles. Assays were conducted with or without ATP and in the absence and presence of SCO-101 at the indicated concentrations (1.2 –300μM).

T1 sequence (P08183 whole entry): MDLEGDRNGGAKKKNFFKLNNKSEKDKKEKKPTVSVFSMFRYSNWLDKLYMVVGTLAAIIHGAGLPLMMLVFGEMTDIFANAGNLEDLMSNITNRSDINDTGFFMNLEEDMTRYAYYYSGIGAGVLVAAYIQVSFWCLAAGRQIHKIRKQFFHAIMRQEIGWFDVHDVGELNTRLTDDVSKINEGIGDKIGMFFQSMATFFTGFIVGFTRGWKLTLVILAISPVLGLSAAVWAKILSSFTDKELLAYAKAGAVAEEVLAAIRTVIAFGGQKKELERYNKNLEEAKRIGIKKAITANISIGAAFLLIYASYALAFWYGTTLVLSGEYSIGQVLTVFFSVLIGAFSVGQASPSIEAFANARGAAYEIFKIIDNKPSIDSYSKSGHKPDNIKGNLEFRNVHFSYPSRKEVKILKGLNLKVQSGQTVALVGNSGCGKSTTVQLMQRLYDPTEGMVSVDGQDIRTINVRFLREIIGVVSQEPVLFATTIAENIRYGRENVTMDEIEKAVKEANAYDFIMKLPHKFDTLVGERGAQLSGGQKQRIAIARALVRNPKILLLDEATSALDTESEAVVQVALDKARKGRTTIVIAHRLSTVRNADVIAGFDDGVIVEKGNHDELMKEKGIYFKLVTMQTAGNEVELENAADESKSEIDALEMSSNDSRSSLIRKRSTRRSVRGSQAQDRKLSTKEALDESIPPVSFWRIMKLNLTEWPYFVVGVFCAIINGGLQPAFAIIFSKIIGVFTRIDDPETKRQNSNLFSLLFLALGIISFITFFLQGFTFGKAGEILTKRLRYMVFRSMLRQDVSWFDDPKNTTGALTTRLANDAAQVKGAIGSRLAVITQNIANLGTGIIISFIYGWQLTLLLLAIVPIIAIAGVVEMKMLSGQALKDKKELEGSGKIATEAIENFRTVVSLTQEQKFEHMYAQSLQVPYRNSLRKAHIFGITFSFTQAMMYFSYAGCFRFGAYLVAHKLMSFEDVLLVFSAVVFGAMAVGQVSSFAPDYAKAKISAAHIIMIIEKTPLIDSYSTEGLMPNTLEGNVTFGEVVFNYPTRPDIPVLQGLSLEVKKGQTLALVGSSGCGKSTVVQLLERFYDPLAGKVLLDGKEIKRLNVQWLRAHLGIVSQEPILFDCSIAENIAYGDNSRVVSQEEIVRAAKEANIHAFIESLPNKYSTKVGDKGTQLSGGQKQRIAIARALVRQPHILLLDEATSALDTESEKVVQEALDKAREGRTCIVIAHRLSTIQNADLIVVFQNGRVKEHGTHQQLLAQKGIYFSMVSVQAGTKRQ

O=C(Nc1cc(C(F)(F)F)cc(C(F)(F)F)c1)Nc1ccc(Br)cc1-c1nnn[nH]1 [SCO-101]
individuals who developed clinical jaundice ([1]; 150 mg dose cohort): Two | adverse events ([1]; single doses up to 200 mg or multiple doses up to 150 mg daily for 14 days): mild adverse events (AEs) and no serious adverse events (SAEs) | IC50 [2]: 16.1 µM

Reference: paper PMC12048447, “PANTAX: a phase Ib clinical trial of the efflux pump inhibitor SCO-101 in combination with gemcitabine and nab-paclitaxel in non-resectable or metastatic pancreatic cancer” (Investigational New Drugs, 2025)
